Data from US8852619B2, “Compositions of dibromomalonamide and their use as biocides” (Dow Global Technologies LLC, priority 2009, dated 2014).
Like-named read-outs stand apart in the source and are kept apart here.

Key:
[1] = Growth inhibition assay (microtiter plate-based synergy assay); format: cell-based; conditions: 24 hr, read-out: Percent inhibition of growth; for inhibition at 0.2 ppm: 0.20 ppm; for inhibition at 12.5 ppm: 12.50 ppm
Procedure: (§1) The assay of this Example measures the efficacy of the biocides at preventing growth of a consortium of bacteria in a dilute mineral salts medium. The medium contains (in mg/l) the following components: FeCl3.6H2O (1); CaCl2.2H2O (10); MgSO4.7H2O (22.5); (NH4)2SO4 (40); KH2PO4 (10); K2HPO4 (25.5); Yeast Extract (10); and glucose (100). After all components are added to deionized water, the pH of the medium is adjusted to 7.5. Following filter sterilization, aliquots are dispensed in […] quantities to sterile microtiter plate wells. Dilutions of 2,2-dibromomalonamide (“DBMAL”) and/or “Biocide B” are then added to the microtiter plate. After preparing the combinations of actives as illustrated below, each well is inoculated with 100 μl of a cell suspension containing ca. 1×10^6 cells per milliliter of a mixture of Pseudomonas aeruginosa, Klebsiella pneumoniae, Staphylococcus aureus, and Bacillus subtilis. The final total volume of medium in each well is 300 μl. Once prepared as described herein, the concentration of each active ranges from 25 ppm to 0.195 ppm as illustrated in Table 1. The resulting matrix allows testing of eight concentrations of each active and 64 combinations of actives at varying ratios.
(§2) Controls (not shown) contain the medium with no biocide added. Immediately after the microtiter plates are prepared, the optical density (OD) readings for each well are measured at 600 nm and the plates are then incubated at 37° C. for 24 hr. After the incubation period, the plates are gently agitated before OD values are collected. The OD values at t(0) are subtracted from t(24) values to determine the total amount of growth (or lack thereof) that occurs. These values are used to calculate the percent inhibition of growth caused by the presence of each biocide and each of the 64 combinations.
(§3) where • MDBMAL: Concentration of DBMAL required to inhibit ˜90% of bacterial growth when used in combination with DBNPA. • CDBMAL: Concentration of DBMAL required to inhibit ˜90% of bacterial growth when used alone. • MDBNPA: Concentration of DBNPA required to inhibit ˜90% of bacterial growth when used in combination with DBMAL. • CDBNPA: Concentration of DBNPA required to inhibit ˜90% of bacterial growth when used alone. The SI values are interpreted as follows: • SI<1: Synergistic combination • SI=1: Additive combination • SI>1: Antagonistic combination
(§4) In the Example, the amounts of biocides in the solution are measured in mg per liter of solution (mg/l). Since solution densities are approximately 1.00, the mg/l measurement corresponds to weight ppm. Both units may therefore be used interchangeably in the Examples.

[2] = tested on: consortium of bacteria: mixture of Pseudomonas aeruginosa, Klebsiella pneumoniae, Staphylococcus aureus, and Bacillus subtilis; test: as above; format: cell-based; conditions: used alone, 24 hr
Procedure: as §1, §2, §3, §4

[3] = cited from earlier work

`NC(=O)C(Br)(Br)C(N)=O` [DBMAL, 2,2-dibromomalonamide] showed an inhibition at 0.2 ppm ([1]; DBMAL alone) of 0%, an inhibition at 1.56 ppm ([1]; DBMAL alone) of 11% and an inhibition at 6.25 ppm ([1]; DBMAL alone) of 38%. It also gave an inhibition at 12.5 ppm ([1]; DBMAL alone) of 92% and an inhibition at 25 ppm ([1]; DBMAL alone) of 96%.

`N#CC(Br)(Br)C(N)=O` [DBNPA, 2,2-dibromo-3-nitrilopropionamide] showed an inhibition at 0.2 ppm ([1]; DBNPA alone) of 0%, an inhibition at 0.39 ppm ([1]; DBNPA alone, 0.39 ppm) of 0% and an inhibition at 0.78 ppm ([1]; DBNPA alone, 0.78 ppm) of 0%. It also gave an inhibition at 1.56 ppm ([1]; DBNPA alone) of 75%, an inhibition at 3.13 ppm ([1]; DBNPA alone, 3.13 ppm) of 98% and an inhibition at 6.25 ppm ([1]; DBNPA alone) of 82%. The inhibition at 12.5 ppm ([1]; DBNPA alone) was 88%, the inhibition at 25 ppm ([1]; DBNPA alone) was 96% and the “Minimum concentration that caused ~90% inhibition of growth (CDBNPA)” value [2] was 3.13 mg/L. For the same compound, the “factor of increase of rate of disappearance” value ([3]; going from pH 6 to pH 8.9) was “about 450”, the “half life (hydrolytic degradation)” value ([3]; pH 8) was 2 h and the “half life (hydrolytic degradation)” value ([3]; pH 11.3) was 0.00694 h.
